Data as given in PubChem BioAssay (NCI).
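A five-concentration, 48-hour dose response in 96-well plates underlies each endpoint, interpolated linearly between surrounding concentrations. Abbreviation: GI50, concentration required for 50% inhibition of growth. TGI marks complete inhibition of growth.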

Assays:
Assay in all cases: NCI anticancer screen, dose series, 48 h
DMS 273 small cell lung = tested on: DMS 273 small cell lung
KM20L2 colon = tested on: KM20L2 colon
HOP-18 NSCLC = tested on: HOP-18 NSCLC
M19-MEL melanoma = tested on: M19-MEL melanoma
SNB-78 CNS = tested on: SNB-78 CNS
DLD-1 colon = tested on: DLD-1 colon
DMS 114 small cell lung = tested on: DMS 114 small cell lung
RXF-631 renal = tested on: RXF-631 renal
XF 498 CNS = tested on: XF 498 CNS

SMILES | TGI (DMS 273 small cell lung) [µM] | TGI (KM20L2 colon) [µM] | TGI (HOP-18 NSCLC) [µM] | TGI (M19-MEL melanoma) [µM] | TGI (SNB-78 CNS) [µM] | TGI (DLD-1 colon) [µM] | TGI (DMS 114 small cell lung) [µM] | TGI (RXF-631 renal) [µM] | TGI (XF 498 CNS) [µM] | GI50 (KM20L2 colon) [µM] | GI50 (SNB-78 CNS) [µM] | GI50 (DLD-1 colon) [µM]
c1ccc2c(c1)OCCOCCOc1ccccc1OCCO2 | > 100 | 87.7 | > 100 | > 100 | > 100 | > 100 | > 100 |  |  |  |  | 
COc1ccc2nc3cc(Cl)ccc3c(Sc3ccc(NC(C)=O)cc3)c2c1 | 21.6 | > 42.1 | > 53.7 | > 22.2 | 62.1 | > 24.1 | 14.1 | > 100 | > 25.2 |  |  | 
CC(=O)OCCOCNC(=S)N/N=C/c1ccc([N+](=O)[O-])s1 | 85.2 | > 100 | > 100 | 34.1 | > 100 | > 100 | 26.4 |  | > 100 |  |  | 
CCOC(=O)CCC(NC(=O)c1ccc(NCc2ccc3nc(-c4ccccc4)c(Cl)nc3c2)cc1)C(=O)OCC (stereo not drawn) | > 100 | > 100 |  | 43.2 | > 100 | > 100 | > 100 | 70.3 | 20.4 |  |  | 
Nc1c(S(=O)(=O)c2ccccc2)c2nc3ccccc3nc2n2c1nc1ccccc12 | > 71.9 | > 100 |  | > 100 | > 62.1 | > 100 | > 100 | 47.5 | > 44.5 |  |  | 
Cc1ccc(C(=O)NCc2ccccc2)cc1N=NN(C)C | > 100 | > 100 |  | > 100 | > 100 | > 100 |  |  |  |  |  | 
C[n+]1c2ccccc2c(NC(CCCN=C(N)N)C(=O)O)c2ccccc21 (stereo not drawn) | > 100 | > 100 | > 100 | > 100 | > 100 | > 100 | > 100 |  | > 100 |  |  | 
CC(=O)OC(CCC1(C)OC1COc1ccc(CCNC(=O)C=C(C)C)cc1)C(C)(C)OC(C)=O (stereo not drawn) | > 100 | > 100 | > 100 | > 100 | > 100 |  | 48.7 |  | 86.3 |  |  | 
Cc1ccc(NC(=O)C(=O)C2C(=O)NC(=O)NC2=O)cc1C | > 100 | > 100 | > 100 | > 100 | > 100 | > 100 |  |  | > 100 |  |  | 
COc1ccc(/C=N/N=C(\N)NO)c(OC)c1C |  |  | 60.6 |  | > 100 | > 100 | 71.9 |  |  |  |  | 
CC(=O)O[C@@]12CO[C@@H]1CC(O)[C@@]1(C)C(=O)[C@H](O)C3=C(C)C(O)C[C@@](O)(C(OC(=O)c4ccccc4)C12)C3(C)C (stereo partly drawn) |  | 3.31 |  | > 100 | > 100 |  |  |  | > 100 |  |  | 
CCCCCCCCCCCC(=O)OC[C@@H](C[As](=O)(O)O)OC(=O)CCCCCCCCCCC | 12.3 | 26.4 | 27.7 | 19.4 |  | 33.3 | 4.54 |  | 29 |  |  | 
CCCC(=O)[O-].CCCC(=O)[O-].NCCN.NCCN.[Co+3].[O-][Cl+3]([O-])([O-])[O-] |  | > 100 |  |  | > 100 | > 100 |  |  |  | > 100 | > 100 | > 100
